Experimental data reported in article PMC4350332 (Oncotarget, 2014).

Assays:
PDK = settings: stated in discussion, no own experiment; cited from earlier work
PDK-1 = PDK-1 (Homo sapiens, UniProt Q15118); test: PDK-1 fluorescence polarization assay (fluorescein-labelled ATP site probe); assay type: binding; design: PDK-1: residues 30-436; made in house; host or cells: E. coli BL21; settings: titration with a probe concentration of 10 nM; read-out: Kd of PDK-1 protein with the probe
Experimental: carbamoyl]-2-(6-hydroxy-3-oxo-3H-xanthen-9-yl)benzoic acid), which binds to the ATP site of PDK resulting in an increase in anisotropy.
The HSP-90ß FP assay was conducted as previously described.

Sequence of PDK-1 (Q15118 30-436): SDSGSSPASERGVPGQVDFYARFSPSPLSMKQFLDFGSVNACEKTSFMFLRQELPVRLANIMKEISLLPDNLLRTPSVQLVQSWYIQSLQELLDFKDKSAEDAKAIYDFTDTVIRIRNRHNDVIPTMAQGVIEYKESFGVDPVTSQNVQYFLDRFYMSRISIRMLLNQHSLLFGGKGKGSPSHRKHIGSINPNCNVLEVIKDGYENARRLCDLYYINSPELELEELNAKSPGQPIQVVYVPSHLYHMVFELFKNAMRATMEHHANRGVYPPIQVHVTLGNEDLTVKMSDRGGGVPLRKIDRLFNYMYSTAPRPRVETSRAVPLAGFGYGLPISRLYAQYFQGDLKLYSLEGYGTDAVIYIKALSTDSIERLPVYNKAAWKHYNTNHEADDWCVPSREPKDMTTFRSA

SMILES | Concentrations required to observe modulation of glycolytic activity and cytotoxicity (PDK) [mM] | Kd (PDK-1) [nM]
O=C(O)C(Cl)Cl [DCA] | 5 to 20 | 
CCNC(=O)c1noc(-c2cc(Cl)c(O)cc2O)c1-c1ccc(CNC(=O)c2ccc(-c3c4ccc(=O)cc-4oc4cc(O)ccc34)c(C(=O)O)c2)cc1 [VER-160364, 5-[({4-[5-(5-chloro-2,4-dihydroxyphenyl)-3-(ethylcarbamoyl)-1,2-oxazol-4-yl]phenyl}methyl)carbamoyl]-2-(6-hydroxy-3-oxo-3H-xanthen-9-yl)benzoic acid] |  | 30
